According to patent US20150284347A1, “NEW BENZENE SULFONAMIDE THIAZOLE COMPOUNDS” (INSERM (INSTITUT NATIONAL DE LA SANTÉ ET DE LA RECHERCHE …, priority 2012, published 2015):

Tests used:
[1] = system: prostate cells LNCAP; test: Trypan blue cell viability, LNCAP; format: cell-based; settings: 10 μM, trypan blue exclusion, FIG. 1
Procedure: (§1) Cell viability was assessed by measuring the number of cells alive in samples of two different kind of prostate cells, respectively noted LNCAP and PC3, of breast cells noted MCF7, of colon cells noted HT29, of metastatic melanoma cell lines A375 and of melanoma cells from patients noted GIC. The measure of cell viability as performed by cell counting using the trypan blue exclusion method. Results were expressed as the percentage of cells alive relatively to the number of living cells in the presence of DMSO, which corresponds to the negative control associated to the 100% value. Cells were seeded in 6-well plates (60000 cells/well), depleted and incubated with compounds for the times indicated. Then cells were detached in the presence of 2000 of […] (Thermo) and 2 ml of RPMI 1640 Glutamax (Gibco) was added to the cell solution. 100 of this solution was stained for 1 minute with 100 of 0.4% trypan blue before counting with a Malassez chamber. The effect of compound on cell viability was studied on different types of cells. […] Cancer cells from prostate, breast, colon and melanoma A375 came from cell lines cultures. […] Results are expressed as percentage of cells alive relatively to the number of living cells in the presence of DMSO, which corresponds to the negative control associated to the 100% value. […]

[2] = system: prostate cells PC3; test: Trypan blue cell viability, PC3; format: cell-based; settings: 10 μM, PC3, trypan blue exclusion, FIG. 1
Procedure: as §1

[3] = system: breast cells MCF7; test: Trypan blue cell viability, MCF7; format: cell-based; settings: 10 μM, MCF7, trypan blue exclusion, FIG. 1
Procedure: as §1

[4] = system: normal human fibroblasts; test: Trypan blue cell viability, normal fibroblasts; format: cell-based; settings: 10 μM, FIG. 2
Procedure: Primary cell cultures of human normal melanocytes were prepared from human foreskin. In order to determine the effect of compound HA15 on cell viability of melanocytes and fibroblasts, 10 μM of ciglitazone or 10 μM of HA15 were added to the cell samples. The measure of cell viability was performed in the same way as for FIG. 1. Results are expressed as the percentage of living cells relatively to the number of living cells in the presence of DMSO, as for FIG. 1. Normal human fibroblasts prepared from foreskins of newborns were grown under 5% CO2 at 37° C. in DMEM medium supplemented with 10% FCS and penicillin/streptomycin (100 U/ml/[…]). Cells were seeded in 6-well plates (60000 cells/well), depleted and incubated with compounds for the times indicated. Then cells were detached in the presence of 2000 of […] (Thermo) and 2 ml of RPMI 1640 Glutamax (Gibco) was added to the cell solution. 100 of this solution was stained for 1 minute with 100 of 0.4% trypan blue before counting with a Malassez chamber. The effect of compound HA15 on cell viability of melanocytes and fibroblasts was studied, as illustrated by FIG. 2. Primary cell cultures of human normal melanocytes were prepared from human foreskin. In order to determine the effect of compound HA15 on cell viability of melanocytes and fibroblasts, 10 μM of ciglitazone or 10 μM of HA15 were added to the cell samples. […]

[5] = system: A375 melanoma cells; test: A375 melanoma xenograft tumor development in nude mice; format: in vivo; settings: 0.7 mg/mouse/day over 24 days, athymic nude mice
Procedure: To assess a potential antineoplastic effect of (HA15) and (SR50) in vivo, A375 melanoma cells (2.5×10^6) were injected subcutaneously in 6-week-old female athymic nude mice and treated 5 days later by injection of vehicle (labrafil) or different compounds such as PLX4032, (HA15) and (SR50) (0.7 mg/mouse/day) over a period of 24 days. Inhibitory effect is expressed as the tumor volume (mm^3) on day 8, 11, 15, 18, 22 and 24.
Athymic BALB/C nu/nu mice (Harlan) were used. The animals were 6 weeks old and weighed between 20 and 25 g. The mice were housed in the animal's C3M in a 12 h/12 h cycle. The animals received water and food ad libitum. Mice were first acclimated for one week and then injected with A375 cells (2.5 million cells in 200 μl of PBS) subcutaneously into the right and left sides. Treatment was started eight days after injection of cancer cells (when tumors were visible). The various compounds were diluted in a mixture of Labrafil (90%) (Gattefosse), Tween 80 (1%) and N,N-Dimethylacetamide (9%). Five groups of six mice treated every day intraperitoneally with 0.7 mg/day of PLX4032, SR44 (HA15), SR47 (HA32), SR50 (JG25) or with the mixture of Labrafil in control were defined. Three times a week the tumor size was measured using a caliper. […]

With `CC(=O)Nc1nc(-c2cccc(NS(=O)(=O)c3cccc4c(N(C)C)cccc34)c2)cs1` [HA15, N-(4-(3-(5-(dimethylamino)naphthalene-1-sulfonamido)phenyl)thiazol-2-yl)acetamide] the “cell viability (cells alive relative to DMSO)” value [1] was “viability greatly reduced”, the “cell viability (cells alive relative to DMSO)” value [2] was “viability greatly reduced” and the “cell viability (cells alive relative to DMSO)” value [3] was “viability greatly reduced”. For the same molecule, the “cell viability of normal fibroblasts” value [4] was “not affected” and the “ability of cells to develop visible tumors” value [5] was “markedly attenuated”.
